PubChem BioAssay (NCI)
Where “and” joins values, the source holds several entries; their conditions need not be identical. Equal entries are not always repeated.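 Briefly, cells in 96-well plates were exposed to five compound concentrations for 48 h, and endpoints were estimated by linear interpolation. GI50 = concentration required for 50% inhibition of growth. Definition used: TGI = concentration required for complete inhibition of growth.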

Columns and labels:
Assay in all cases: NCI tumour cell line growth inhibition, 48 h
[1] = system: OVCAR-8 ovarian
[2] = system: SNB-19 CNS
[3] = system: SK-OV-3 ovarian
[4] = system: EKVX NSCLC
[5] = system: NCI-H460 lung
[6] = system: UACC-257 melanoma
[7] = system: NCI/ADR-RES ovarian
[8] = system: MDA-MB-435
[9] = system: LOX IMVI melanoma
[10] = system: HOP-92 NSCLC

Row | SMILES | TGI [1] | TGI [2] [µM] | TGI [3] | TGI [4] [µM] | TGI [5] | TGI [6] [µM] | GI50 [1] | GI50 [7] [µM] | GI50 [8] [µM] | TGI [8] [µM] | GI50 [2] | GI50 [3] | GI50 [4] [µM] | GI50 [5] | GI50 [6] [µM] | GI50 [9] | TGI [9] | TGI [10] | TGI [7] [µM] | GI50 [10] [µM]
1 | O=C1C=C(c2ccccc2)NC1(c1ccccc1)c1cc(-c2ccccc2)[nH]c1-c1ccccc1 (stereo not drawn) | > 100 µM | > 100 | > 100 µM | > 100 | > 100 µM | > 100 | – | – | – | – | – | – | – | – | – | – | – | – | – | –
2 | C[C@H]1CCC/C=C/[C@@H]2C[C@H](O)C[C@H]2[C@H](O)C(O)C(O)C(=O)O1 (stereo partly drawn) | 5.11 µM | > 100 | > 100 µM | > 100 | > 100 µM | > 100 | 1.16 µM | 1.62 | 3.74 | > 100 | 3.35 µM | 3.75 µM | 4.24 | 2.65 µM | 1.1 | – | – | – | – | –
3 | COc1ccc(-c2cc(-c3ccco3)c(C#N)c(=O)n2C2OC(COC(C)=O)C(OC(C)=O)C(OC(C)=O)C2OC(C)=O)cc1 (stereo not drawn) | > 100 µM and 40.4 µM | > 100 | > 100 µM and 64.5 µM | > 100 | > 100 µM and 81 µM | > 100 | > 100 µM and 10.9 µM | – | – | – | > 100 µM and 42.8 µM | > 100 µM and 28.1 µM | – | 35.8 µM and 8.76 µM | – | 59.4 µM and 14.1 µM | > 100 µM and 59.6 µM | > 100 µM and 62.7 µM | – | –
4 | NNC(=O)C(=O)N/N=C1\CCCC1C(=O)CCC(=O)Nc1cccc(Cl)c1 (stereo not drawn) | > 100 µM | > 100 | – | > 100 | > 100 µM | > 100 | – | – | – | – | – | – | – | – | – | – | > 100 µM | > 100 µM | – | –
5 | CCCOC(=O)C1C(c2ccc(OC)cc2)NC(c2ccc(OC)cc2)C(C(=O)OCCC)S1(=O)=O (stereo not drawn) | > 100 µM | > 100 | > 100 µM | > 100 | – | > 100 | > 100 µM | – | – | – | > 100 µM | – | > 100 | – | > 100 | – | – | – | – | –
6 | O=C1/C(=C/c2ccccc2)CN(C(=O)/C=C/c2ccccc2)C/C1=C\c1ccccc1 | 9.78 µM | 25.9 | 57.9 µM | 50.1 | 39.3 µM | 37 | – | – | – | 3.74 | – | – | – | – | – | – | 7.1 µM | 62.2 µM | – | –
7 | C=CCN=C1NC(=O)C(CC(=O)Nc2ccc([N+](=O)[O-])cc2[N+](=O)[O-])S1 (stereo not drawn) | > 100 µM | > 100 | > 100 µM | > 100 | > 100 µM | > 100 | – | – | – | – | – | – | – | – | – | – | – | > 100 µM | – | –
8 | O=C1CC2=CCCC2O1 (stereo not drawn) | > 100 µM | > 100 | > 100 µM | > 100 | > 100 µM | > 100 | – | – | – | – | – | – | – | – | – | – | > 100 µM | > 100 µM | – | –
9 | NNC(=S)N/N=C(\c1nc2ccc(Cl)cc2[nH]c1=O)C(O)c1cccc([N+](=O)[O-])c1 (stereo not drawn) | > 100 µM | > 100 | > 100 µM | > 100 | > 100 µM | > 100 | – | – | – | – | – | – | – | – | – | – | > 56.6 µM | > 100 µM | – | –
10 | O=C1CC[C@@H]2[C@H]3CCC(=O)c4c3c(c3cccc(O)c3c4O)O[C@@]23C(=O)c2cccc(O)c2C(O)=C13 | > 100 µM | > 100 | – | > 100 | > 100 µM | > 100 | > 100 µM | > 100 | – | – | > 100 µM | – | > 100 | > 100 µM | > 100 | > 100 µM | > 100 µM | – | > 100 | –
11 | COC(=O)N1C=CC2=C(C)C3Nc4ccccc4C3C(C)=C2C1 (stereo not drawn) | 7.5 µM | > 100 | 8.71 µM | > 100 | 11.6 µM | 14.3 | – | – | – | – | – | – | – | – | – | – | 20.1 µM | 10.1 µM | – | –
12 | CC[P+](C)(C)CC | > 100 µM | > 100 | > 100 µM | > 100 | > 100 µM | > 100 | – | – | – | – | – | – | – | – | – | – | > 100 µM | > 100 µM | – | –
13 | N/N=C1\C(=O)N(c2ccc(Cl)c(Cl)c2)C(=O)C1C(=O)Nc1ccc(Cl)c(Cl)c1 (stereo not drawn) | > 100 µM | > 100 | – | > 100 | > 100 µM | > 100 | – | – | – | – | – | – | – | – | – | – | – | > 100 µM | – | –
14 | NC(=O)c1c(-c2ccccc2)c(-c2ccccc2)cc2c(=O)c3ccccc3[nH]c12 | 50 µM | 52.4 | 54.2 µM | > 100 | 76.8 µM | > 100 | – | – | – | – | – | – | – | – | – | – | > 100 µM | 55.5 µM | – | –
15 | CC[C@@]1(O)C(=O)OCc2c1cc1n(c2=O)Cc2cc3c(N)c(OC)ccc3nc2-1 | – | > 61.9 | 2.29 µM | > 100 | 0.111 µM | 2.15 | – | – | – | – | < 0.0238 µM | 0.0582 µM | 0.574 | 0.013 µM | 0.219 | 0.0216 µM | 0.151 µM | 1.85 µM | – | 0.185
16 | CC(C)CC1CC2C(=O)N(c3ccccc3)C(=O)C2c2[nH]c3ccccc3c21 (stereo not drawn) | 51.6 µM | > 100 | 43.6 µM | > 100 | > 100 µM | > 100 | – | – | – | – | – | – | – | – | – | – | > 87.8 µM | 41.8 µM | – | –
